This is an account of results in US10709709B2, “Substituted carbonucleoside derivatives useful as anticancer agents” (Pfizer Inc., priority 2016, dated 2020).

The structures appear in SMILES notation. Structures can show the parent of a compound that is named as a salt.

What is called IC50 is the point on the concentration scale where inhibition reaches its midpoint.

Assay [1] addresses PRMT5/MEP50 protein complex (Homo sapiens (Human), UniProt O14744). The assay can be described thus: PRMT5 biochemical assay (3H-SAM methylation of H4(1-21) peptide, filter plate scintillation). The conditions noted are these: 10 nM PRMT5/MEP50 complex, 200 nM H4(1-21) peptide, 1 uM SAM, 25 minute incubation at room temperature. The gist of the method:
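Human PRMT5/MEP50 complex (10 nM) methylating H4(1-21) peptide (200 nM) with 3H/unlabelled SAM (1 uM final) in pH 8.5 Tris buffer, 25 min at room temperature. Stopped with TCA, 3H-peptide captured on filter plates and scintillation-counted. IC50 from 4-parameter fit.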

The subject of assay [2] is A549 lung adenocarcinoma cells. The assay can be described thus: A549 proliferation assay (Cell Titer Glo). The format is cell-based. The conditions noted are these: 7 days with compound, cell viability by Cell Titer Glo (ATP). The gist of the method: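 A549 cells plated overnight, then treated with nine-point 3.3-fold dilutions (final top 10 μM, 0.2% DMSO) for 7 days at 37 °C, with media and compound refreshed on day 4. Viability measured as ATP by Cell Titer Glo luminescence; IC50 from 4-parameter fit normalized to DMSO control.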
(Cellular ATP, detected with luciferase, serves as a proxy for viable cell number.)

Sequence of PRMT5/MEP50 protein complex (O14744 other isoform, or with tags, fused parts or gaps): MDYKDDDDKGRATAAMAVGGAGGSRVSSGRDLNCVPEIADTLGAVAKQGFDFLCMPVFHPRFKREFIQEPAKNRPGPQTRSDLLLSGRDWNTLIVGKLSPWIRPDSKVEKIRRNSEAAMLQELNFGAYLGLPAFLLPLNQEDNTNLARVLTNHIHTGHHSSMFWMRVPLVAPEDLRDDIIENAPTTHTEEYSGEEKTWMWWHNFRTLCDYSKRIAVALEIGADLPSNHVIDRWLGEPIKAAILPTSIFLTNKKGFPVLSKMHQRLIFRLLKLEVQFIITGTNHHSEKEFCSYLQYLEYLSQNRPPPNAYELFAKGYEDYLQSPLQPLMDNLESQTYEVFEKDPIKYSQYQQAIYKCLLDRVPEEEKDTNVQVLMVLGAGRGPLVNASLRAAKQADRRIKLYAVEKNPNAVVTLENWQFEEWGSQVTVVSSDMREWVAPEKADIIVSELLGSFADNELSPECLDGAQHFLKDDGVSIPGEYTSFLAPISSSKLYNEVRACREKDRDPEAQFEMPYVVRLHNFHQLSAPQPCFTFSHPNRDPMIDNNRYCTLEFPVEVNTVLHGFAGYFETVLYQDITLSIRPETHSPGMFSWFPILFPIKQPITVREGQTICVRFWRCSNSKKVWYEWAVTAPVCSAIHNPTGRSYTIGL
Sequence of PRMT5/MEP50 protein complex (Q9BQA1 whole entry partner): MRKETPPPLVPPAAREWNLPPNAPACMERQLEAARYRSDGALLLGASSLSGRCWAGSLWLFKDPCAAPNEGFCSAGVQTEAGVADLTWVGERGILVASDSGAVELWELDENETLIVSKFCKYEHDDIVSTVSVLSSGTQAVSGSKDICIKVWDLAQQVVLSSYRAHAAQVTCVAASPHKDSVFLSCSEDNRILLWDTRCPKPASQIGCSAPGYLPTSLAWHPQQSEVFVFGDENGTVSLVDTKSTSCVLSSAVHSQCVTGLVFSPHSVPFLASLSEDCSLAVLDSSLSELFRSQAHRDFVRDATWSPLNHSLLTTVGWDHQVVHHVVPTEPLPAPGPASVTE

As to `Cc1ncnc2c1ccn2[C@@H]1C[C@H](Oc2cc(Cl)cc3c2CNCCO3)[C@@H](O)[C@H]1O` [Example 204, (1S,2S,3S,5R)-3-((8-chloro-2,3,4,5-tetrahydrobenzo[f][1,4]oxazepin-6-yl)oxy)-5-(4-methyl-7H-pyrrolo[2,3-d]pyrimidin-7-yl)cyclopentane-1,2-diol], the IC50 in assay [1] was determined as 0.002 µM; in assay [2] (Homo sapiens, A549, 168 h), 0.72 µM.

As to `Cc1ncnc2c1c(F)cn2[C@@H]1C[C@H](Oc2cc(F)c(F)c3c2CNCC3)[C@@H](O)[C@H]1O` [Example 177, (1S,2S,3S,5R)-3-((5,6-difluoro-1,2,3,4-tetrahydroisoquinolin-8-yl)oxy)-5-(5-fluoro-4-methyl-7H-pyrrolo[2,3-d]pyrimidin-7-yl)cyclopentane-1,2-diol], the IC50 in assay [1] stood at 0.004 µM; in assay [2] (Homo sapiens, A549, 168 h) it was 2.37 µM.

Regarding `Cc1ncc2c(F)cn([C@@H]3C[C@H](Oc4cc(C#N)cc5c4CNCC5)[C@@H](O)[C@H]3O)c2n1` [Example 173, 8-(((1S,2S,3S,4R)-4-(5-fluoro-2-methyl-7H-pyrrolo[2,3-d]pyrimidin-7-yl)-2,3-dihydroxycyclopentyl)oxy)-1,2,3,4-tetrahydroisoquinoline-6-carbonitrile], the IC50 in assay [1] worked out at 0.003 µM; in assay [2] (Homo sapiens, A549, 168 h), 3.57 µM.

Regarding `Cc1ncnc2c1ccn2[C@@H]1C[C@H](Oc2cc(C(F)(F)F)cc3c2CNCC3)[C@@H](O)[C@H]1O` [Example 90, (1S,2S,3R,5S)-3-(4-methyl-7H-pyrrolo[2,3-d]pyrimidin-7-yl)-5-((6-(trifluoromethyl)-1,2,3,4-tetrahydroisoquinolin-8-yl)oxy)cyclopentane-1,2-diol], the half-maximal inhibitory concentration (IC50) in assay [1] turned out to be 0.002 µM; in assay [2] (Homo sapiens, A549, 168 h) it was 0.948 µM.

For the compound `Cc1ncnc2c1ccn2[C@@H]1C[C@H](Oc2ccc(Cl)cc2CN)[C@@H](O)[C@H]1O` [Example 159, (1S,2S,3S,5R)-3-(2-(aminomethyl)-4-chlorophenoxy)-5-(4-methyl-7H-pyrrolo[2,3-d]pyrimidin-7-yl)cyclopentane-1,2-diol], the IC50 in assay [1] worked out at 0.005 µM; in assay [2] (Homo sapiens, A549, 168 h), 5.2 µM.

Consider `Cc1ncnc2c1ccn2[C@@H]1C[C@H](Oc2cc(F)cc3c2CNCC3)[C@@H](O)[C@H]1O` [Example 85, (1S,2S,3S,5R)-3-((6-fluoro-1,2,3,4-tetrahydroisoquinolin-8-yl)oxy)-5-(4-methyl-7H-pyrrolo[2,3-d]pyrimidin-7-yl)cyclopentane-1,2-diol], for which the IC50 in assay [1] came to 0.002 µM; in assay [2] (Homo sapiens, A549, 168 h), 0.92 µM.

Consider `Cc1cc2c(c(O[C@H]3C[C@@H](n4cc(C)c5c(N)ncnc54)[C@H](O)[C@@H]3O)c1)CNCC2` [Example 122, (1S,2S,3R,5S)-3-(4-amino-5-methyl-7H-pyrrolo[2,3-d]pyrimidin-7-yl)-5-((6-methyl-1,2,3,4-tetrahydroisoquinolin-8-yl)oxy)cyclopentane-1,2-diol], for which the IC50 turned out to be 0.003 µM in assay [1] and 4.48 µM in assay [2] (Homo sapiens, A549, 168 h).

Turning to `Cc1ncnc2c1ccn2[C@@H]1C[C@H](Oc2cc(F)cc3c2CNCCO3)[C@@H](O)[C@H]1O` [Example 203, (1S,2S,3S,5R)-3-((8-fluoro-2,3,4,5-tetrahydrobenzo[f][1,4]oxazepin-6-yl)oxy)-5-(4-methyl-7H-pyrrolo[2,3-d]pyrimidin-7-yl)cyclopentane-1,2-diol], the IC50 in assay [1] was determined as 0.001 µM; in assay [2] (Homo sapiens, A549, 168 h), 0.677 µM.

For the compound `Cc1ncnc2c1ccn2[C@@H]1C[C@H](Cc2ccc(Cl)cc2CN)[C@@H](O)[C@H]1O` [Example 55, (1S,2R,3S,5R)-3-(2-(aminomethyl)-4-chlorobenzyl)-5-(4-methyl-7H-pyrrolo[2,3-d]pyrimidin-7-yl)cyclopentane-1,2-diol], the IC50 in assay [1] came out at 0.002 µM; in assay [2] (Homo sapiens, A549, 168 h), 3.17 µM.

On to `N#Cc1cc2c(c(O[C@H]3C[C@@H](n4cc(Br)c5c(N)ncnc54)[C@H](O)[C@@H]3O)c1)CNCC2` [Example 120, 8-(((1S,2S,3S,4R)-4-(4-amino-5-bromo-7H-pyrrolo[2,3-d]pyrimidin-7-yl)-2,3-dihydroxycyclopentyl)oxy)-1,2,3,4-tetrahydroisoquinoline-6-carbonitrile], for which the IC50 in assay [1] turned out to be 0.001 µM; in assay [2] (Homo sapiens, A549, 168 h), 0.442 µM.

`Cc1ncnc2c1ccn2[C@@H]1C[C@H](Oc2ccc(F)c3c2CNCC3C)[C@@H](O)[C@H]1O` (single isomer, unassigned) [Example 183, hydrochloride]: the IC50 was determined as 0.001 µM in assay [1] and 0.136 µM in assay [2] (hydrochloride).

In the case of `CN1CCc2cccc(O[C@H]3C[C@@H](n4cc(F)c5c(N)ncnc54)[C@H](O)[C@@H]3O)c2C1` [Example 114, (1S,2S,3R,5S)-3-(4-amino-5-fluoro-7H-pyrrolo[2,3-d]pyrimidin-7-yl)-5-((2-methyl-1,2,3,4-tetrahydroisoquinolin-8-yl)oxy)cyclopentane-1,2-diol], the IC50 in assay [1] came out at 0.004 µM; in assay [2] (Homo sapiens, A549, 168 h), 3.94 µM.

As for `Nc1ncnc2c1c(F)cn2[C@@H]1C[C@H](Oc2cc(Br)c(F)c3c2CNCC3)[C@@H](O)[C@H]1O` [Example 109, (1S,2S,3R,5S)-3-(4-amino-5-fluoro-7H-pyrrolo[2,3-d]pyrimidin-7-yl)-5-((6-bromo-5-fluoro-1,2,3,4-tetrahydroisoquinolin-8-yl)oxy)cyclopentane-1,2-diol], the IC50 turned out to be 0.001 µM in assay [1] and 0.067 µM in assay [2] (Homo sapiens, A549, 168 h).

In the case of `Cc1ncnc2c1ccn2[C@@H]1C[C@H](Oc2cc(C#N)cc3c2CNCCO3)[C@@H](O)[C@H]1O` [Example 202, 6-(((1S,2S,3S,4R)-2,3-dihydroxy-4-(4-methyl-7H-pyrrolo[2,3-d]pyrimidin-7-yl)cyclopentyl)oxy)-2,3,4,5-tetrahydrobenzo[f][1,4]oxazepine-8-carbonitrile], the IC50 in assay [1] was determined as 0.001 µM; in assay [2] (Homo sapiens, A549, 168 h), 1.77 µM.

Turning to `Cc1ncnc2c1ccn2[C@@H]1C[C@H](Oc2cc(C(F)F)c(F)c3c2CNCC3C)[C@@H](O)[C@H]1O` (stereo partly drawn) [Example 212, (1S,2S,3S,5R)-3-((6-(difluoromethyl)-5-fluoro-4-methyl-1,2,3,4-tetrahydroisoquinolin-8-yl)oxy)-5-(4-methyl-7H-pyrrolo[2,3-d]pyrimidin-7-yl)cyclopentane-1,2-diol], the IC50 in assay [1] worked out at 0.001 µM; in assay [2], 0.002 µM.

On to `Cc1ncnc2c1ccn2[C@@H]1C[C@H](Oc2ccc(Cl)cc2CCN)[C@@H](O)[C@H]1O` [Example 146, (1S,2S,3S,5R)-3-(2-(2-aminoethyl)-4-chlorophenoxy)-5-(4-methyl-7H-pyrrolo[2,3-d]pyrimidin-7-yl)cyclopentane-1,2-diol], for which the IC50 in assay [1] was 0.027 µM; in assay [2] (Homo sapiens, 168 h), 7.07 µM.

`Cc1ncnc2c1ccn2[C@@H]1C[C@H]([C@H](O)c2cccc3c2CNCC3)[C@@H](O)[C@H]1O` [Example 56, (1S,2R,3R,5R)-3-((S)-hydroxy(1,2,3,4-tetrahydroisoquinolin-8-yl)methyl)-5-(4-methyl-7H-pyrrolo[2,3-d]pyrimidin-7-yl)cyclopentane-1,2-diol]: the IC50 in assay [1] came out at 0.002 µM; in assay [2] (Homo sapiens, A549, 168 h), 0.378 µM.

Regarding `Cc1ncnc2c1ccn2[C@@H]1C[C@H](Oc2cc(-c3cn[nH]c3)cc3c2CNCC3)[C@@H](O)[C@H]1O` [Example 165, (1S,2S,3S,5R)-3-((6-(1H-pyrazol-4-yl)-1,2,3,4-tetrahydroisoquinolin-8-yl)oxy)-5-(4-methyl-7H-pyrrolo[2,3-d]pyrimidin-7-yl)cyclopentane-1,2-diol], the IC50 was 0.002 µM in assay [1] and 0.766 µM in assay [2] (Homo sapiens, A549, 168 h).

For `Nc1ncnc2c1ccn2[C@@H]1C[C@H](Oc2ccc(F)c3c2CNCC3)[C@@H](O)[C@H]1O` [Example 180, (1S,2S,3R,5S)-3-(4-amino-7H-pyrrolo[2,3-d]pyrimidin-7-yl)-5-((5-fluoro-1,2,3,4-tetrahydroisoquinolin-8-yl)oxy)cyclopentane-1,2-diol], the IC50 in assay [1] was 0.003 µM; in assay [2] (Homo sapiens, A549, 168 h), 0.159 µM.

As for `Nc1ncnc2c1c(Cl)cn2[C@@H]1C[C@H](Oc2ccc(F)c3c2CNCC3)[C@@H](O)[C@H]1O` [Example 133, (1S,2S,3R,5S)-3-(4-amino-5-chloro-7H-pyrrolo[2,3-d]pyrimidin-7-yl)-5-((5-fluoro-1,2,3,4-tetrahydroisoquinolin-8-yl)oxy)cyclopentane-1,2-diol], the IC50 in assay [1] came out at 0.001 µM; in assay [2] (Homo sapiens, A549, 168 h) it was 0.443 µM.

For `Nc1ncnc2c1c(Br)cn2[C@@H]1C[C@H](Oc2cc(F)c(F)c3c2CNCC3)[C@@H](O)[C@H]1O` [Example 125, (1S,2S,3R,5S)-3-(4-amino-5-bromo-7H-pyrrolo[2,3-d]pyrimidin-7-yl)-5-((5,6-difluoro-1,2,3,4-tetrahydroisoquinolin-8-yl)oxy)cyclopentane-1,2-diol], the IC50 in assay [1] worked out at 0.001 µM; in assay [2] (Homo sapiens, A549, 168 h), 0.637 µM.

For `Nc1ncnc2c1c(Br)cn2[C@@H]1C[C@H](Oc2ccc(F)c3c2CNCC3)[C@@H](O)[C@H]1O` [Example 134, (1S,2S,3R,5S)-3-(4-amino-5-bromo-7H-pyrrolo[2,3-d]pyrimidin-7-yl)-5-((5-fluoro-1,2,3,4-tetrahydroisoquinolin-8-yl)oxy)cyclopentane-1,2-diol], the IC50 is 0.001 µM in assay [1] and 0.64 µM in assay [2] (Homo sapiens, A549, 168 h).

For `Cc1ncnc2c1ccn2[C@@H]1C[C@H](Oc2ccc(F)c3c2C(C)NCC3)[C@@H](O)[C@H]1O` (single isomer, unassigned) [Example 213], the IC50 came out at 0.001 µM in assay [1] and 1.2 µM in assay [2] (Homo sapiens, A549, 168 h).

For `Cc1ncnc2c1ccn2[C@@H]1C[C@H](Oc2cccc3c2CN[C@@H](C)CO3)[C@@H](O)[C@H]1O` [Example 207, (1S,2S,3S,5R)-3-(((S)-3-methyl-2,3,4,5-tetrahydrobenzo[f][1,4]oxazepin-6-yl)oxy)-5-(4-methyl-7H-pyrrolo[2,3-d]pyrimidin-7-yl)cyclopentane-1,2-diol], the 50% inhibitory concentration (IC50) in assay [1] was determined as 0.024 µM; in assay [2] (Homo sapiens, A549, 168 h) it was 1.48 µM.
